Measurements: patent US20150219644A1, “MARKER FOR ACUTE CORONARY SYNDROME, AND USE THEREOF” (RIKEN, priority 2012, published 2015)

How the values were obtained:
[1] = system: human brain microvascular endothelial cell (BMEC); experiment: sAPP770 secreted from BMEC detected by APP770 ELISA; format: cell-based; settings: culture 16 hr, n=4; for level of sAPP770 secreted from BMEC: cytokine 100 ng/ml
Text: (A) Brief explanations of APP total ELISA and APP770 ELISA. The recognition sites of a trap antibody (with asterisk) and a detection antibody (without asterisk) in these ELISA systems are shown in the schematic drawing. (B) Western blot analysis. Anti-N terminal APP (22C11) antibody detects full-length APP695, APP751 and APP770 in the lysates of COS cells overexpressing APP695, APP751 and APP770, whereas anti-OX2 antibody used as a trap antibody in APP770 ELISA specifically recognizes APP770. (C) APP total ELISA detects sAPP695, sAPP751 and sAPP770 secreted from COS cells, whereas APP770 ELISA detects only sAPP770. (D) BMEC was cultured for 16 hr in the presence or absence of inflammatory cytokine (TNFα, IL-1β or IL-6; each 100 ng/ml), and sAPP770 secreted from the cells was detected by APP770 ELISA. […] (E) An influence on secretion of sAPP770 from BMEC by culture for 16 hr in the presence of TAPI-0 (10 μM). […] (F) The sAPP770 levels of human serum and human plasma samples are shown in mean±SEM (n=19).
Human APP695-pcDNA3.1, APP751-pcDNA3.1 and APP770-pcDNA3.1 used were those constructed in the previous study (J Biol Chem 285(51):40097-40103 (2010)). Human BMEC (Applied Cell Biology Research Institute) was cultured in CS-C complete medium added with 10% FBS, and used within 4 passages.
Using human sAPP total assay kit (IBL-Japan), sAPP695, sAPP751 and sAPP770 were detected according to the established protocol (http://www.ibl-japan.co.jp). The APP770 ELISA system was established as previously reported (Anal Chim Acta 631(1): 116-120 (2009)). Briefly explained, a 96 well plate was coated with an anti-OX2 antibody, and a horseradish peroxidase-conjugated anti-APP R101A4 antibody was used as a detection antibody. Human CSF (1:16 diluted with dilution buffer contained in kit), plasma and serum (1:75 diluted with dilution buffer contained in kit) were evaluated by APP total ELISA and APP770 ELISA.

platelets = experiment: release of sAPP770 from collagen-stimulated platelets (PRP), APP770 ELISA; format: cell-based, human; settings: collagen final concentration 3 μg/ml
Protocol: (A, B) PRP was stirred under stimulation with collagen (final concentration 3 μg/ml). At the time points shown in the Figure, each sample was centrifuged, and supernatant (A) […] and platelet pellet (B) were analyzed by APP770 ELISA. (C) Platelets were washed, stimulated with collagen, centrifuged, and sAPP770 released in the supernatant was analyzed. (D) Schematic drawing showing APP770 and the sites recognized by a series of anti-APP antibodies. (E) After stimulation of platelets with collagen and, at the time points shown in the Figure, the platelet pellets were solubilized, sAPP was pulled down from the platelet release product, and analyzed by western blotting using anti-APP(22C11) antibody, anti-OX2 antibody, anti-APP(C) antibody and anti-KPI antibody. […]
On the day of experiment, blood (16 ml) was collected from healthy human by using a vacuum blood collection tube (NIPRO CORPORATION) containing 3.8% sodium citrate. […] The obtained cell lysate was evaluated by ELISA and Western blot analysis.
Using human sAPP total assay kit (IBL-Japan), sAPP695, sAPP751 and sAPP770 were detected according to the established protocol (http://www.ibl-japan.co.jp). […] Human CSF (1:16 diluted with dilution buffer contained in kit), plasma and serum (1:75 diluted with dilution buffer contained in kit) were evaluated by APP total ELISA and APP770 ELISA.

Row | Compound | level of sAPP770 secreted from BMEC [1] | also measured
1 | CC(C)C[C@H](CC(=O)NO)C(=O)N[C@@H](Cc1ccc2ccccc2c1)C(=O)N[C@@H](C)C(N)=O [TAPI-0] | – | secretion of sAPP770 from BMEC ([1]; TAPI-0 10 μM): partially inhibited
2 | IL-1β: recombinant human inflammatory cytokine from R&D Systems | significantly increased only slightly | –
3 | IL-6: recombinant human inflammatory cytokine from R&D Systems | did not increase | –
4 | TNFα | significantly increased only slightly | –
5 | collagen | – | level of sAPP770 in the platelet precipitate (platelets; after stimulation): decreased remarkably; level of sAPP770 in the PRP supernatant (platelets; one minute after stimulation): increased rapidly
